# US20260167677A1, “ANTI-ADAM10 ANTIBODIES AND USES IN TREATMENT OF CANCER” (Memorial Sloan Kettering Cancer Center, priority 2022, published 2026)
# How the values were obtained:
# [1] = system: xenografted COLO205 cells; assay: Mouse model of CRC using xenografted COLO205 cells; format: in vivo; settings: first study; 1H5 30 mg/kg i.p. biweekly, irinotecan 20 mg/kg i.p. once a week
# Method: For the mouse model, COLO205 cells were grown in monolayer culture, harvested by trypsinization, and implanted subcutaneously into the right flank of 6- to 8-week-old female athymic nude mice. Approximately 10 million cells were injected per mouse. Mice were randomized into 4 groups (each n=4).
# Tumor volume was determined by external caliper and calculated by the modified ellipsoidal formula: V=½(Length×Width^2). Antitumor efficacy was calculated as (1-dT/dC)[…], where dT is the final tumor volume minus the starting tumor volume from the treatment group, and dC is the final tumor volume minus the starting tumor volume of the control group (Rios-Doria et al., 2015). Error bars were calculated as SEM. The mouse body weight and general health were monitored daily.
# In a second study, 1H5 at two different doses was used in the mouse model. For the mouse model, approximately five million cells were implanted (subcutaneous with Matrigel) into 6- to 8-week-old female athymic nude mice. Mice were randomized into 3 groups (each n=5).
# [2] = target: T1, human ADAM10 ECD (Homo sapiens, UniProt O14672); assay: Fluorogenic peptide cleavage assay, human ADAM10 ECD; format: biochemical; settings: 1:1 molar ratio; human or bovine ADAM10 ECD not told apart
# T1 construct: Human ADAM10 ECD (20-650); Fc-tag (human); made in house; host or cells: baculovirus-infected Hi5 insect cells
# T1 sequence (O14672 20-650): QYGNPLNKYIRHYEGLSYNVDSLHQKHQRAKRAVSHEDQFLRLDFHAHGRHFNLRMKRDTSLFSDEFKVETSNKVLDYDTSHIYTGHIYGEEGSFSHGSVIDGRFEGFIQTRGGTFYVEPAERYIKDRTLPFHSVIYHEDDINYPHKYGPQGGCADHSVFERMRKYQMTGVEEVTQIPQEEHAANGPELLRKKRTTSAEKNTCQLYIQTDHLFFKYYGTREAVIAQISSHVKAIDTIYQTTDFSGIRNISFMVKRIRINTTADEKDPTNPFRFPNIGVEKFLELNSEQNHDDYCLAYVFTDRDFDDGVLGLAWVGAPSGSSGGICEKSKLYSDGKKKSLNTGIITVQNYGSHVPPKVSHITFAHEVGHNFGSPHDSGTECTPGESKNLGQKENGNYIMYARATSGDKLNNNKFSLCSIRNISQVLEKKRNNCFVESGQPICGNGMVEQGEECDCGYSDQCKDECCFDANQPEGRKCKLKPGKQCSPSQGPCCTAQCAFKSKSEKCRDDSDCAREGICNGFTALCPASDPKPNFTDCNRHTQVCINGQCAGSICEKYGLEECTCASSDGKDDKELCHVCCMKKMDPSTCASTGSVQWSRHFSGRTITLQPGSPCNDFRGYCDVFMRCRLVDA
# Method: ADAM10 ECD-antibody or ADAM10 ECD-inhibitor (broad spectrum metalloprotease inhibitor GM6001) complexes were formed at a 1:1 molar ratio prior to the assay. The assay was carried out by mixing 50 μM of a fluorogenic peptide substrate Mca-PLAQAV-Dpa with ADAM10-antibody/inhibitor complexes at 37° C., and monitoring the progress of the enzymatic reaction by fluorescence emission (excitation 320 nm and emission 405 nm) over a time course of 1 hour using a SpectraMax M5. ADAM10 ECD (bovine or human) alone was used as positive control. The substrate peptide was derived from TNFalpha and contains a highly fluorescent 7-methoxycoumarin group and a quencher group, 2,4-dinitrophenyl. ADAM10 cleaves the amide bond between the fluorescent and the quencher group causing an increase in fluorescence (Seegar et al., 2017; Black & Becherer, 1998).
SMILES,tumor growth inhibition [1],effect on substrate cleavage [2]
"CCc1c2c(nc3ccc(OC(=O)N4CCC(N5CCCCC5)CC4)cc13)-c1cc3c(c(=O)n1C2)COC(=O)[C@]3(O)CC [Irinotecan, irinotecan, reference compound]",48%,
"CNC(=O)[C@H](Cc1c[nH]c2ccccc12)NC(=O)[C@@H](CC(=O)NO)CC(C)C [broad-spectrum inhibitor, GM6001, reference compound]",,marginal inhibition
